From US20120094939A1, “ANTI-VIRAL COMPOUNDS, COMPOSITIONS AND METHODS” (priority 2007, published 2012)

Columns and labels:
[1] = test system: OR6 cells; test: Secondary assay cell viability (CellTiter-Glo); settings: 48 hours
Method: Secondary Assays-Hit Validation. Several hits from primary HTS, as well as functionally related compounds, were purchased from Sigma (St. Louis, Mo.), Calbiochem (San Diego, Calif.), and Microsource (Gaylordsville, Conn.). […] Ten mM of stock solutions of the individual compounds to be tested was prepared in the appropriate solvent (DMSO, ethanol, or H2O, according to the manufacturer's information) and stored at −20° C. Cells were seeded into 96-well plates at a density of 2000 cells/well in 100 μL of medium. The cells were incubated for 24 hours at 37° C. to obtain the optimal level of adherence. Solutions of candidate hit compounds were added to wells to achieve final concentrations of 0.1, 1, 10, 50, and 100 μM. The final concentration of DMSO or ethanol in every well was 1% or less by volume. Mock solutions were used as a negative control. PEG-IFN and ribavirin were used as positive controls at various concentrations, alone and in combination. The plates were then incubated at 37° C. with 5% CO2 for 48 hours before they were analyzed. Luminescent signal was generated using the Renilla luciferase assay kit (Promega) according to the manufacturer's instructions. Signal was then detected using a LumiCount (Packard BioScience Company) luminometer. Cell viability was assessed using CellTiter-Glo (Promega), following the manufacturer's instructions. All experiments were performed in triplicate.
Secondary Assays-Data Analysis. Values were presented as a percentage of mock treated control, which was arbitrarily set at 100%. Data were expressed as the mean (±) SD. […] Synergy calculations were performed using CalcuSyn (Biosoft; Cambridge, England).
Secondary Assays—Hit Validation: 10 mM of stock solutions of the individual compounds to be tested were prepared in DMSO and stored at −20° C. Cells were seeded into 96-well plates at a density of 2,000 cells/well in 100 μl of medium. The cells were incubated for 24 hours at 37° C. to obtain the optimal level of adherence. Solutions of candidate hit compounds were added to wells to achieve varying final concentrations between 0.01 and 100 μM. The final concentration of DMSO or ethanol in every well was 1% or less by volume. Mock solutions were used as a negative control. Peginterferon-alfa-2b (PEG-Intron; Schering Corp.; Kenilworth, N.J.) and ribavirin (Sigma; St. Louis, Mo.) were used as positive controls at various concentrations, alone and in combination. The plates were then incubated at 37° C. with 5% CO2 for 48 hours before they were analyzed. Luminescent signal was generated using the Renilla luciferase assay kit (Promega; Madison, Wis.) according to the manufacturer's instructions. Signal was then detected using a LumiCount™ (Packard BioScience Company; Downers Grove, Ill.) luminometer. Cell viability was assessed using CellTiter-Glo (Promega; Madison, Wis.), following the manufacturer's instructions. All experiments were performed in triplicate. Values were presented as a percentage of mock treated control, which was arbitrarily set at 100%. Data were expressed as the mean±SD.
Secondary Assays—Data Analysis: Values were presented as a percentage of mock treated control, which was arbitrarily set at 100%. Data were expressed as the mean±SD.

[2] = test system: Huh7/Rep-Feo cells; test: Primary HTS cell viability counter-screen (CellTiterGlo); assay type: cell-based, human; settings: for C-CompZ, compositeZ score for cell viability assay: Table 2 antiviral hits of DOS set, approximately 10-50 μM, most at 33 μM, 48 hours
Method: Primary Screening-HTS. Information about the library of known bioactive compounds that was screened and the general automated HTS protocol is available at http://www.broad.harvard.edu/chembio/index.html (see FIG. 10 for list of primary HTS with known bioactives library). Based on the results of optimization experiments in the 384-well plate format, the general HTS protocol was adapted as follows. Unless otherwise indicated, cells were incubated at all times in a humidified environment with 5% CO2 at 37° C. The assay was initiated by plating 30 μL of medium containing 2000 cells/well into white 384-well opaque-bottom plates (Nunc, Rochester, N.Y.) using an automated plate filler (Bio-Tek uFiller; Winsooki, Vt.) and allowing the cells to adhere for 24 hours. One hundred nL of compound stock solutions in DMSO was transferred from stock plates into the 384-well assay plates using an automated pin-based compound transfer robot (CyBio CyBi-Well vario; Woburn, Mass.). The final compound concentration in each well was estimated to be approximately 10-50 μM, with most compounds at 33 μM. The wells contained 0.33% DMSO by volume. The cells were then incubated for another 48 hours. The luminescent signal from each plate was detected using an automated plate reader (Perkin-Elmer Envision 1; Wellesley, Mass.). This screen was performed in duplicate. For negative controls, entire DMSO-treated control plates were employed, in addition to DMSO-only control wells that were incorporated into each compound assay plate. The cells were assayed for luciferase activity using the Bright-Glo Luciferase assay system (Promega), following the manufacturer's instructions. As a counter-screen, cell viability was assessed using the CellTiterGlo Luminescent cell viability assay (Promega) following the manufacturer's instructions.
Computational Data Analysis-Primary Screening. For each replicate, a mock-treatment distribution based on the total population of mock (DMSO) controls in that replicate was built (FIG. 11). Each compound was independently assigned a sign (ie, “+” or “−”) Z-score. Z-scores are calculated by dividing each background-subtracted, compound-treated well by the global standard deviation. A global standard deviation of the background-subtracted, mock-treated wells is calculated over the entire experiment. This distribution was determined to be consistent with experimental noise observed under cell-based assay conditions. The resulting collection of continuousvalued Z-scores represents the primary data set to be used for further analysis. The composite Z-score was calculated as a vector projection of each Z-score in duplicate onto an imaginary line of perfect reproducibility. Reproducibility is the cosine of the angle between each Z-score and that imaginary line; it is dimensionless and ranges from −1 to +1. […] The primary data were analyzed using the commercial software packages Pipeline Pilot (SciTegic, San Diego, Calif.) and SpotFire (SpotFire, Inc., Somerville, Mass.). The means of the negative, DMSO-only controls were considered the zero point.
Primary Screening—HTS: Unless otherwise indicated, cells were incubated at all times in a humidified environment with 5% CO2 at 37° C. The assay was initiated by plating 30 μl of medium containing 2,000 cells/well into white 384-well opaque-bottom plates (Nunc; Rochester, N.Y.) using an automated plate filler (Bio-Tek μFiller; Winsooki, Vt.) and allowing the cells to adhere for 24 hours. 100 nl of compound stock solutions in DMSO were transferred from stock plates into the 384-well assay plates using an automated pin-based compound transfer robot (CyBio CyBi-Well vario; Woburn, Mass.). The final compound concentration in each well was estimated to be approximately 10-50 μM, with most compounds at 33 μM. The wells contained 0.33% DMSO by volume. The cells were then incubated for another 48 hours. […]

Structure (SMILES)	concentrations at which cytotoxic effects were exhibited [1]	C-CompZ, compositeZ score for cell viability assay [2]	concentrations with no significant/observed cytotoxicity [1] [µM]	cytotoxicity (in words) [1]	cytotoxicity in the primary screen ([2]; tested at 33 μM)
CC(=O)OC[C@H]1O[C@H](CCO/N=C2/[C@H]3CCn4c(=O)n(-c5ccccc5)c(=O)n4[C@H]3[C@H](O)[C@@H]3O[C@H]23)C=C[C@@H]1OC(C)=O [BUCMLD-B10A3]	above 7 μM	−1.8907	–	–	–
Cc1cc2c(nc1C)CCCN2CC(C)O/N=C1/[C@H]2CCn3c(=O)n(-c4ccccc4)c(=O)n3[C@H]2[C@H](O)[C@@H]2O[C@H]12 (some centres unmarked) [BUCMLD-B10A5]	≥ 30 µM	0.3574	–	–	–
Cc1cc(C)c(-c2cc([C@H](C)O/N=C3/[C@H]4CCn5c(=O)n(-c6ccccc6)c(=O)n5[C@H]4[C@H](O)[C@@H]4O[C@H]34)on2)c(C)c1 [BUCMLD-B10A11]	–	−1.7178	≤ 10	–	–
O=C1C2C=C(I)C(CC2OCCCCO)[C@@]12CO2 (some centres unmarked) [SM_A5B3_2P141]	–	0.6345	–	–	–
O=C1C2(CO)C=C(Br)C(CC2c2ccccc2)[C@@]12CO2 (some centres unmarked) [SM_A6B5_2P100]	–	−0.2965	≤ 30	–	–
COc1cc2c(cc1OC)-c1c/c(=N\c3c(C)cc(C)cc3C)n(C)c(=O)n1CC2 [trequinsin, reference compound]	–	–	–	significant cytotoxicity only at the higher concentrations of 50 and 100 μM	cytotoxic
